Reference: ChEMBL document CHEMBL1773026, “Inhalation by design: dual pharmacology β-2 agonists/M3 antagonists for the treatment of COPD” (Bioorg Med Chem Lett, 2011)

Columns and labels:
[1] = biological target: T1, Beta-2 adrenergic receptor (Homo sapiens, UniProt P07550); experiment: Agonist activity at human beta2 adrenergic receptor expressed in CHO cells assessed as stimulation of intracellular cAMP production after 30 mins of washing by wash-off assay; type: functional, cell-based
Target sequence in this assay (P07550 whole entry): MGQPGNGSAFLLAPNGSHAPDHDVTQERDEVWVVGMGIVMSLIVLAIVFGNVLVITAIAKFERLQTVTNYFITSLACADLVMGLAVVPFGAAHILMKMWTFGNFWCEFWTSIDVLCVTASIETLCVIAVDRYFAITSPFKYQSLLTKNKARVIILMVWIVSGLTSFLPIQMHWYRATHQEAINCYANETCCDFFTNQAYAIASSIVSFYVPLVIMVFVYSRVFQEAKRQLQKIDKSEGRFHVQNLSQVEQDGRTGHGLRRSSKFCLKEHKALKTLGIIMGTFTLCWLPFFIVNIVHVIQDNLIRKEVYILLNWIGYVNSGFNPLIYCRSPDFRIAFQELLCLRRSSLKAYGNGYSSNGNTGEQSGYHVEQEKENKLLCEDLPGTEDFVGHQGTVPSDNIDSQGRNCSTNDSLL

[2] = biological target: T1, Beta-2 adrenergic receptor; experiment: Ratio of EC50 for human beta2 adrenergic receptor by unwashed assay to EC50 for human beta2 adrenergic receptor expressed in CHO cells by wash-off assay; type: cell-based
Target sequence in this assay (P07550 whole entry, looked up): as the sequence (P07550 whole entry) above

[3] = biological target: T2, Muscarinic acetylcholine receptor M3 (Homo sapiens, UniProt P20309); experiment: Displacement of [3H]N-methyl Scopolamine from human muscarinic M3 receptor expressed in CHO cells by scintillation proximity assay; type: cell-based
Target sequence in this assay (P20309 whole entry): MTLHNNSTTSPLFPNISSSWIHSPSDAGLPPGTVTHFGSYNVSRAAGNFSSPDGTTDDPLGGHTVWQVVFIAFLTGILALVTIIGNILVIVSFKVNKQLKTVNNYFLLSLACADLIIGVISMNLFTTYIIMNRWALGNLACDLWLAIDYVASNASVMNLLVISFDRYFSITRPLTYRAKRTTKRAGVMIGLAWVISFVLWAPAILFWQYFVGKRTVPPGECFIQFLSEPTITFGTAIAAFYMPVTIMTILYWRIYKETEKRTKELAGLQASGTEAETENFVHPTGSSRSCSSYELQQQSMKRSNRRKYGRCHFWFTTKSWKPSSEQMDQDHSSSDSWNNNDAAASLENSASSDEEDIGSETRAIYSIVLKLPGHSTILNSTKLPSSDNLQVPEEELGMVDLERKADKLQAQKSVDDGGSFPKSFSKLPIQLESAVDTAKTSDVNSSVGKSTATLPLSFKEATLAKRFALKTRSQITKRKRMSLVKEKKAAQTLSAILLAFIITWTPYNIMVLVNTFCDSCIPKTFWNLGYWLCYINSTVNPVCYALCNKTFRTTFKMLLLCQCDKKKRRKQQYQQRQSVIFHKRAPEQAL

[4] = Clearance in human liver microsomes; type: ADME, Microsome
[5] = biological target: T2, Muscarinic acetylcholine receptor M3; experiment: Displacement of [3H]NMS from human muscarinic M3 receptor expressed in CHO cells assessed as time required to reach 50% of total [3H]NMS binding by dilution-offset methodology; type: cell-based
Target sequence in this assay (P20309 whole entry, looked up): as the sequence (P20309 whole entry) above

[6] = Bronchodilatory activity against electrically-stimulated contraction in guinea pig trachea assessed as concentration required for 50% bronchorelaxation activity; type: functional, tissue-based, Cavia porcellus
[7] = Bronchodilatory activity against electrically-stimulated contraction in guinea pig trachea assessed as time taken for inducing 50% maximum relaxant effect; type: functional, Cavia porcellus
[8] = biological target: Muscarinic acetylcholine receptor M3 (Cavia porcellus, UniProt Q8VH26); experiment: […] activity at muscarinic M3 receptor in guinea pig trachea assessed as bronchorelaxation activity in presence of propranolol; type: functional, tissue-based
Muscarinic acetylcholine receptor M3 (Cavia porcellus, UniProt Q8VH26), sequence (Q8VH26 whole entry): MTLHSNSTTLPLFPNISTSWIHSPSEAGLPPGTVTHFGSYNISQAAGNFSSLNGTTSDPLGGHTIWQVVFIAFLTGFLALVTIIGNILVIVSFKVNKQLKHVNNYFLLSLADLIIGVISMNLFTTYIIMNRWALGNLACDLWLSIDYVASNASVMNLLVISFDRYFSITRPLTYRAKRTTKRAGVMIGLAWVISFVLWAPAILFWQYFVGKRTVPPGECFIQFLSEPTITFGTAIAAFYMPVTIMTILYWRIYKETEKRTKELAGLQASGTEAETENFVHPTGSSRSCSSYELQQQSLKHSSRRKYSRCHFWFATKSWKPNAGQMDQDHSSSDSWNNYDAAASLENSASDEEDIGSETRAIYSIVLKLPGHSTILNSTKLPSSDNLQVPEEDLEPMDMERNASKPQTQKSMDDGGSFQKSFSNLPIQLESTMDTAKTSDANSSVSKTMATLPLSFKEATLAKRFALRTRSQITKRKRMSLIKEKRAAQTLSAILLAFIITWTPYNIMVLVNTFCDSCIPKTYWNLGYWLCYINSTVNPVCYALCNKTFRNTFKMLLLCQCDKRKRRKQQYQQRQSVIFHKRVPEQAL

[9] = biological target: Muscarinic acetylcholine receptor M3 (Cavia porcellus) (UniProt Q8VH26); experiment: […] activity at muscarinic M3 receptor in guinea pig trachea assessed as time taken for inducing bronchorelaxation activity in presence of propranolol; type: functional, tissue-based
Muscarinic acetylcholine receptor M3 (Cavia porcellus), sequence (Q8VH26 1-587): as the sequence (Q8VH26 whole entry) above

[10] = biological target: Beta-2 adrenergic receptor (Cavia porcellus, UniProt Q8K4Z4); experiment: Agonist activity at adrenergic beta2 receptor in guinea pig trachea assessed as bronchorelaxation activity against histamine-induced contraction; type: functional
Beta-2 adrenergic receptor (Cavia porcellus, UniProt Q8K4Z4), sequence (Q8K4Z4 whole entry): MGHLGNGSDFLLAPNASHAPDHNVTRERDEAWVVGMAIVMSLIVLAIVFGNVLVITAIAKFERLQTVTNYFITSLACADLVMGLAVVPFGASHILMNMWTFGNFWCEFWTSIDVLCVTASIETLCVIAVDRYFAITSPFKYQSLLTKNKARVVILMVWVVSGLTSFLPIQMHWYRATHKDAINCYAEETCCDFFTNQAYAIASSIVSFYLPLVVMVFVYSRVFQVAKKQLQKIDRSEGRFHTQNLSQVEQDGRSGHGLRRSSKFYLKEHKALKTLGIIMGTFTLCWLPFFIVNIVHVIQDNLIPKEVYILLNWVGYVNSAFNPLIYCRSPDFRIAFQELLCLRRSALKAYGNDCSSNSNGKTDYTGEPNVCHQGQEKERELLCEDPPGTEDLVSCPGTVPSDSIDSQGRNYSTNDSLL

Canis familiaris [11] = species on record: Canis familiaris; experiment: Inhibition of methacholine-induced bronchoconstriction in dog; type: functional, Canis lupus familiaris
[12] = Oral bioavailability in human; type: ADME, organism-based; details: in vivo
[13] = AUC in rat at 2 mg/kg, iv; type: ADME, organism-based; set-up: dose 2 mg/kg, route intravenous; details: plasma
[14] = Clearance in rat at 2 mg/kg, iv; type: ADME, organism-based; set-up: dose 2 mg/kg, route intravenous; details: in vivo
Canis familiaris [15] = species on record: Canis familiaris; experiment: Inhibition of methacholine-induced bronchoconstriction in dog assessed as duration action at 30 ug, it; type: functional, Canis lupus familiaris

SMILES | EC50 [1] | Ratio EC50 [2] | Ki [3] | microsomal CLint [4] | TIME [5] | EC50 [6] | Time [7] | EC50 [8] | TIME [9] | EC50 [10] | ED50 (Canis familiaris [11]) | bioavailability [12] | AUC [13] | clearance [14] | Time (Canis familiaris [15])
CC(C)N(CC[C@H](c1ccccc1)c1cc(CCCCOc2ccc(CCNC[C@H](O)c3ccc(O)c(NS(C)(=O)=O)c3)cc2)ccc1O)C(C)C | 13 nM | 1.9 | 0.634 nM | 67 µL/min/mg | > 20 h |  |  |  |  |  |  |  |  |  | 
CC(C)N(CC[C@H](c1ccccc1)c1cc(CCCNC(=O)Cc2cccc(C[C@@H](C)NC[C@H](O)c3cc(O)cc(O)c3)c2)ccc1O)C(C)C | 15 nM | 0.7 | 0.397 nM | > 440 µL/min/mg | 2.25 h |  |  |  |  |  |  |  |  |  | 
CC(C)N(CC[C@H](c1ccccc1)c1cc(CCCNC(=O)Cc2cccc(CC(C)(C)NC[C@H](O)c3ccc(O)c(CO)c3)c2)ccc1O)C(C)C | 17 nM | 2.8 | 0.091 nM | 263 µL/min/mg | 5.92 h |  |  |  |  |  |  |  |  |  | 
CC(C)N(CC[C@H](c1ccccc1)c1cc(CCCNC(=O)CCCCCCCCCCNC[C@H](O)c2ccc(O)c(NS(C)(=O)=O)c2)ccc1O)C(C)C | 116 nM | 7.3 | 1.45 nM | 87 µL/min/mg |  |  |  |  |  |  |  |  |  |  | 
CC(C)N(CC[C@H](c1ccccc1)c1cc(CCCCOc2ccc(CCNC[C@H](O)c3ccc(O)c(CO)c3)cc2)ccc1O)C(C)C | 129 nM | 2.6 | 0.765 nM | 54 µL/min/mg | > 20 h |  |  |  |  |  |  |  |  |  | 
CC(C)N(CC[C@H](c1ccccc1)c1cc(CCCCOc2ccc(CCNC[C@H](O)c3ccc(O)c(O)c3)cc2)ccc1O)C(C)C | 173 nM |  | 4.7 nM |  |  |  |  |  |  |  |  |  |  |  | 
CC(C)N(CC[C@H](c1ccccc1)c1cc(CCCCOc2ccc(CCNC[C@H](O)c3ccc(O)c4[nH]c(=O)ccc34)cc2)ccc1O)C(C)C | 2.4 nM | 1.1 | 0.305 nM | 74 µL/min/mg | > 20 h | 4.1 nM | >7.7 h | 4 nM | > 10 h | 4 nM | 30 µg | < 5% | 2670 ng·h/mL | 12.6 mL/min/kg | >16 h
Cc1ccc(O)c([C@H](CCN(C(C)C)C(C)C)c2ccccc2)c1 [TOLTERODINE] |  |  |  | 163 µL/min/mg | < 0.25 h |  |  |  |  |  |  |  |  |  | 

Second part, led by results:

EC50 [1] | Ratio EC50 [2] | Ki [3] | microsomal CLint [4] | TIME [5] | SMILES | EC50 [6] | Time [7] | EC50 [8] | TIME [9] | EC50 [10] | ED50 (Canis familiaris [11]) | bioavailability [12] | AUC [13] | clearance [14] | Time (Canis familiaris [15])
5.7 nM | 0.7 | 0.99 nM | 57 µL/min/mg | > 20 h | CC(C)N(CC[C@H](c1ccccc1)c1cc(CCCCOCCCCCCNC[C@H](O)c2ccc(O)c(NS(C)(=O)=O)c2)ccc1O)C(C)C |  |  |  |  |  |  |  |  |  | 
10 nM | 19 | 6.1 nM |  | < 0.25 h | CC(C)N(CC[C@H](c1ccccc1)c1cc(CCNC[C@H](O)c2ccc(O)c(NS(C)(=O)=O)c2)ccc1O)C(C)C |  |  |  |  |  |  |  |  |  | 
1.1 nM | 2.9 |  | > 440 µL/min/mg |  | C[C@H](Cc1cccc(CC(=O)NCc2ccc(Cl)c(Cl)c2)c1)NC[C@H](O)c1ccc(O)c(CO)c1 |  |  |  |  |  |  |  |  |  | 
8.1 nM | 1.1 | 0.276 nM | 109 µL/min/mg | 2.77 h | CC(C)N(CC[C@H](c1ccccc1)c1cc(CCCNC(=O)Cc2cccc(CC(C)(C)NC[C@H](O)c3ccc(O)c(NS(C)(=O)=O)c3)c2)ccc1O)C(C)C | 1.3 nM | >6.5 h | 5.3 nM | 4.8 h | 2.1 nM |  |  |  |  | 
